We go through 29 compounds from patent publication US20240150293A1, “SPIROCYCLOHEXANE DERIVATIVES, PHARMACEUTICAL COMPOSITIONS CONTAINING THEM AND THEIR USES AS ANTI-APOPTOTIC INHIBITORS” (LES LABORATOIRES SERVIER, priority 2021, published 2024).

In general, Ki refers to the dissociation constant of the complex between target and ligand, obtained from inhibition or displacement.

SMILES strings stand for the structures.

Chain of Mcl-1 protein (Q07820 whole entry): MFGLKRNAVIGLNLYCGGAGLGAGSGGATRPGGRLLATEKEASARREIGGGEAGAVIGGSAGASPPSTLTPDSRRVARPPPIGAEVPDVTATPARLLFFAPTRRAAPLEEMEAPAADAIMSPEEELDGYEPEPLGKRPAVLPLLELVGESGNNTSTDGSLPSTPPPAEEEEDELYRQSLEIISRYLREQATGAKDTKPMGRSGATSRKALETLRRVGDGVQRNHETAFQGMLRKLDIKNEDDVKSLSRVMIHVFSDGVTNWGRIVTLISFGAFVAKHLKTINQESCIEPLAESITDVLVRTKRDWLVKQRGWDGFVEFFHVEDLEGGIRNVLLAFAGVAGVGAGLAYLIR

The test addresses Mcl-1 protein (UniProtKB Q07820) (Homo sapiens (Human), UniProt Q07820). The experiment in a line: Inhibition of Mcl-1 by the fluorescence polarisation assay (Example A, Method A). The conditions noted are these: fluorescence polarization assay. Format: binding. A digest of the protocol: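 Protein (5 nM) and fluorescein-tagged peptide tracer (1 nM) incubated with 11-point compound series for 2 h at room temperature in HEPES/NaCl/Tween 20 buffer, pH 7.4, 5% DMSO. Displacement read as decrease in polarisation; IC50 fitted by 4-parameter logistic, converted to Ki (cKi or eKi).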
(In general: Fluorescence polarisation rises when a labelled molecule tumbles more slowly, as on binding a larger partner.)
For `O=C(O)[C@]1(Nc2cccc(Cl)c2)CC[C@@]2(CC1)c1ccccc1CC2CCCCc1ccccc1` (some centres unmarked) [Example 394, (1r,4r)-4-(3-chloroanilino)-2′-(4-phenylbutyl)-2′,3′-dihydrospiro[cyclohexane-1,1′-indene]-4-carboxylic acid], the inhibition constant (Ki) came out at 134 nM.

In the case of `COc1cccc(C)c1C1Cc2ccccc2[C@]12CC[C@@](Nc1cccc(Cl)c1)(C(=O)O)CC2` (mixture of isomers) [Example 286, (1r,4r)-4-(3-chloroanilino)-2′-(2-methoxy-6-methylphenyl)-2′,3′-dihydrospiro[cyclohexane-1,1′-indene]-4-carboxylic acid], the Ki was determined as 5800 nM.

Consider `Cc1cc(Br)cc2c1N(C)C(=O)[C@]21CC[C@@](Nc2cccc(Br)c2)(C(=O)O)CC1` [Example 20, (1r,4r)-5′-bromo-4-(3-bromoanilino)-1′,7′-dimethyl-2′-oxo-1′,2′-dihydrospiro[cyclohexane-1,3′-indole]-4-carboxylic acid], for which the Ki came out at 25700 nM.

Regarding `O=C(O)[C@]1(Nc2cccc(Br)c2)CC[C@@]2(CC1)C(c1ccccc1)=Cc1ccccc12` [Example 209, (1r,4r)-4-(3-bromoanilino)-2′-phenylspiro[cyclohexane-1,1′-indene]-4-carboxylic acid], the inhibition constant Ki stood at 35000 nM.

In the case of `O=C(O)[C@]1(Nc2cccc(Cl)c2)CC[C@@]2(CC1)c1ccccc1CC2c1ccc(OCc2ccncc2)cc1` (single isomer, unassigned) [Example 369, (1r,4r)-4-(3-chloroanilino)-2′-{4-[(pyridin-4-yl)methoxy]phenyl}-2′,3′-dihydrospiro[cyclohexane-1,1′-indene]-4-carboxylic acid], the Ki was determined as 1910 nM.

Take `O=C(O)[C@]1(Nc2cccc(Cl)c2)CC[C@@]2(CC1)c1ccccc1CC2[C@H]1C[C@@H]1COc1ccnc2ccsc12` (single isomer, unassigned) [Example 104, (1r,4r)-4-(3-chloroanilino)-2′-[(1R*,2S*)-2-{[(thieno[3,2-b]pyridin-7-yl)oxy]methyl}cyclopropyl]-2′,3′-dihydrospiro[cyclohexane-1,1′-indene]-4-carboxylic acid]: the inhibition constant (Ki) is 1360 nM.

Take `O=C(O)[C@]1(Nc2cccc(Cl)c2)CC[C@@]2(CC1)c1ccccc1CC2CCCOc1ccnc2c1CCC2O` (some centres unmarked) [Example 475, (1r,4r)-4-(3-chloroanilino)-2′-{3-[(7-hydroxy-6,7-dihydro-5H-cyclopenta[b]pyridin-4-yl)oxy]propyl}-2′,3′-dihydrospiro[cyclohexane-1,1′-indene]-4-carboxylic acid]: the inhibition constant (Ki) is 99.2 nM.

`O=C(O)[C@]1(Nc2cccc(Cl)c2)CC[C@@]2(CC1)c1ccccc1CC2CCOc1ccncc1F` (some centres unmarked) [Example 188, (1r,4r)-4-(3-chloroanilino)-2′-{2-[(3-fluoropyridin-4-yl)oxy]ethyl}-2′,3′-dihydrospiro[cyclohexane-1,1′-indene]-4-carboxylic acid]: the Ki was 214 nM.

Take `O=C(O)[C@]1(Nc2cccc(Cl)c2)CC[C@@]2(CC1)c1ccccc1CC2c1cccc2c1OCC2` (single isomer, unassigned) [Example 296, (1r,4r)-4-(3-chloroanilino)-2′-(2,3-dihydro-1-benzofuran-7-yl)-2′,3′-dihydrospiro[cyclohexane-1,1′-indene]-4-carboxylic acid]: the Ki was found to be 3460 nM.

For the compound `O=C(O)[C@]1(Nc2cccc(Cl)c2)CC[C@@]2(CC1)c1ccccc1CC2c1cccc(Oc2cccnc2)c1` (single isomer, unassigned) [Example 374, (1r,4r)-4-(3-chloroanilino)-2′-{3-[(pyridin-3-yl)oxy]phenyl}-2′,3′-dihydrospiro[cyclohexane-1,1′-indene]-4-carboxylic acid], the inhibitory constant (Ki) stood at 189 nM.

Take `O=C(O)[C@]1(Nc2cccc(Cl)c2)CC[C@]2(CC1)C(Br)=Cc1cc(Cl)ccc12` [Example 135, (1s,4s)-2′-bromo-5′-chloro-4-(3-chloroanilino)spiro[cyclohexane-1,1′-indene]-4-carboxylic acid]: the inhibitory constant (Ki) is 200 nM.

As to `CC1=C(C)[C@]2(CC[C@](Nc3cccc(Br)c3)(C(=O)O)CC2)c2ccccc21` [Example 202, (1r,4r)-4-(3-bromoanilino)-2′,3′-dimethylspiro[cyclohexane-1,1′-indene]-4-carboxylic acid], the Ki was determined as 300 nM.

With `O=C(O)[C@]1(Nc2cccc(Cl)c2)CC[C@]2(CC1)C(CCCCOc1ccccc1)=Cc1ccccc12` [Example 160, (1r,4r)-4-(3-chloroanilino)-2′-(4-phenoxybutyl)spiro[cyclohexane-1,1′-indene]-4-carboxylic acid], the Ki stood at 768 nM.

Turning to `COc1cccc(N2C(=O)c3ccccc3[C@]23CC[C@@](Nc2cccc(Br)c2)(C(=O)O)CC3)c1` [Example 30, (1s,4s)-4-(3-bromoanilino)-2′-(3-methoxyphenyl)-3′-oxo-2′,3′-dihydrospiro[cyclohexane-1,1′-isoindole]-4-carboxylic acid], the inhibitory constant (Ki) is 9250 nM.

Consider `O=C(O)[C@]1(Nc2cccc(Cl)c2)CC[C@@]2(CC1)c1ccccc1CC2[C@H]1C[C@@H]1COc1cccnc1` (single isomer, unassigned) [Example 115, (1r,4r)-4-(3-chloroanilino)-2′-[(1R*,2S*)-2-{[(pyridin-3-yl)oxy]methyl}cyclopropyl]-2′,3′-dihydrospiro[cyclohexane-1,1′-indene]-4-carboxylic acid], for which the Ki is 1140 nM.

In the case of `CC(C)C(COc1ccncc1)CC1Cc2ccccc2[C@]12CC[C@@](Nc1cccc(Cl)c1)(C(=O)O)CC2` (single isomer, unassigned) [Example 534, (1r,4r)-4-(3-chloroanilino)-2′-(3-methyl-2-{[(pyridin-4-yl)oxy]methyl}butyl)-2′,3′-dihydrospiro[cyclohexane-1,1′-indene]-4-carboxylic acid], the inhibition constant Ki amounted to 1520 nM.

`O=C(O)C1(Nc2cccc(Br)c2)CCC2(CC1)C(c1cc(Cl)cc(Cl)c1)=Cc1ccccc12` (single isomer, unassigned) [Example 236, 4-(3-bromoanilino)-2′-(3,5-dichlorophenyl)spiro[cyclohexane-1,1′-indene]-4-carboxylic acid]: the inhibition constant Ki amounted to 27100 nM.

On to `O=C(O)C1(Nc2cccc(Cl)c2)CCC2(C=Cc3cccnc32)CC1` (single isomer, unassigned) [Example 71, 4-(3-chloroanilino)spiro[cyclohexane-1,7′-cyclopenta[b]pyridine]-4-carboxylic acid], for which the Ki stood at 984 nM.

Regarding `O=C(O)[C@]1(Nc2cccc(Cl)c2)CC[C@]2(CC1)C(Cc1ccccc1)=Cc1ccccc12` [Example 168, (1r,4r)-2′-benzyl-4-(3-chloroanilino)spiro[cyclohexane-1,1′-indene]-4-carboxylic acid], the inhibition constant Ki came to 1670 nM.

As for `O=C(O)[C@]1(Nc2cccc(Cl)c2)CC[C@@]2(CC1)c1ccccc1CC2OCCCc1ccccc1` (some centres unmarked) [Example 400, (1s,4s)-4-(3-chloroanilino)-2′-(3-phenylpropoxy)-2′,3′-dihydrospiro[cyclohexane-1,1′-indene]-4-carboxylic acid], the inhibition constant (Ki) worked out at 917 nM.

In the case of `O=C(O)[C@]1(Nc2cccc(Cl)c2)CC[C@]2(CC1)C(C#Cc1ccncc1)=Cc1ccccc12` [Example 173, (1s,4s)-4-(3-chloroanilino)-2′-[(pyridin-4-yl)ethynyl]spiro[cyclohexane-1,1′-indene]-4-carboxylic acid], the inhibition constant (Ki) is 455 nM.

Take `COc1ccc(CCCC2Cc3ccccc3[C@]23CC[C@@](Nc2cccc(Cl)c2)(C(=O)O)CC3)cc1` (some centres unmarked) [Example 161, (1r,4r)-4-(3-chloroanilino)-2′-[3-(4-methoxyphenyl)propyl]-2′,3′-dihydrospiro[cyclohexane-1,1′-indene]-4-carboxylic acid]: the Ki stood at 447 nM.

In the case of `O=C(O)[C@]1(Nc2cccc(Cl)c2)CC[C@@]2(CC1)c1ccccc1CC2c1ccc2c(c1)OCC2` (single isomer, unassigned) [Example 287, (1r,4r)-4-(3-chloroanilino)-2′-(2,3-dihydro-1-benzofuran-6-yl)-2′,3′-dihydrospiro[cyclohexane-1,1′-indene]-4-carboxylic acid], the Ki amounted to 925 nM.

In the case of `COc1ccc(C2Cc3ccccc3[C@]23CC[C@@](Nc2cccc(Cl)c2)(C(=O)O)CC3)cc1C` (single isomer, unassigned) [Example 243, (1r,4r)-4-(3-chloroanilino)-2′-(4-methoxy-3-methylphenyl)-2′,3′-dihydrospiro[cyclohexane-1,1′-indene]-4-carboxylic acid], the Ki came out at 273 nM.

As for `O=C(O)[C@]1(Nc2cccc(Cl)c2)CC[C@]2(CC1)C(c1ccc(OCc3cccnc3)cc1)=Cc1ccccc12` [Example 350, (1s,4s)-4-(3-chloroanilino)-2′-{4-[(pyridin-3-yl)methoxy]phenyl}spiro[cyclohexane-1,1′-indene]-4-carboxylic acid], the inhibition constant Ki worked out at 1750 nM.

In the case of `Cc1ccc(C2Cc3ccccc3[C@]23CC[C@@](Nc2cccc(Cl)c2)(C(=O)O)CC3)cc1` (single isomer, unassigned) [Example 307, (1r,4r)-4-(3-chloroanilino)-2′-(4-methylphenyl)-2′,3′-dihydrospiro[cyclohexane-1,1′-indene]-4-carboxylic acid], the inhibition constant (Ki) was 9170 nM.

Regarding `O=C(O)C1(Nc2cccc(Br)c2)CCC2(CC1)c1ccccc1CC2c1ccc(Cl)cc1` (centres unmarked) [Example 222, 4-(3-bromoanilino)-2′-(4-chlorophenyl)-2′,3′-dihydrospiro[cyclohexane-1,1′-indene]-4-carboxylic acid], the inhibitory constant (Ki) was found to be 2260 nM.

Take `O=C(O)[C@]1(Nc2cccc(O)c2)CC[C@]2(CC1)C(Br)=Cc1ccccc12` [Example 84, (1s,4s)-2′-bromo-4-(3-hydroxyanilino)spiro[cyclohexane-1,1′-indene]-4-carboxylic acid]: the Ki amounted to 7220 nM.

As for `CN1c2ccccc2C2(CCC(Nc3cccc(Br)c3)(C(=O)O)CC2)C1CCc1ccccc1` (single isomer, unassigned) [Example 25, 4-(3-bromoanilino)-1′-methyl-2′-(2-phenylethyl)-1′,2′-dihydrospiro[cyclohexane-1,3′-indole]-4-carboxylic acid], the Ki stood at 887 nM.
